Laboratory results reported in patent US7999126B2, “Palladium(0)-dibenzylidene acetone complexes” (priority 2007, dated 2011).

Experiment: Solubility Test: CHCl3-insoluble residue of the product
Type: physicochemical
Conditions: 1.00 g product in 150 ml chloroform
Protocol: 1.00 g of the product are dissolved in 150 ml of chloroform and stirred at room temperature for 30 minutes. The solution is then aspirated through a membrane filter. The filter is washed with 30 ml of water and 30 ml of acetone and subsequently dried over night at 45° C. in vacuo.
1.00 g of the product were dissolved in 150 ml of chloroform and stirred for 30 minutes at room temperature. The solution was aspirated through a membrane filter. The filter was washed with 30 ml of water and 30 ml of acetone and subsequently dried over night at 45° C. in vacuo.
1.00 g of the product were dissolved in 150 ml of chloroform and stirred for 30 minutes at room temperature. The solution was aspirated through a membrane filter. The filter was washed with 30 ml of water and 30 ml of acetone, and the filter was subsequently dried over night at 45° C. in vacuo.

SMILES: O=C(/C=C/c1ccccc1)/C=C/c1ccccc1.O=C(/C=C/c1ccccc1)/C=C/c1ccccc1.[Pd] [Experiment 1, Pd(dba)2]
- CHCl3-insoluble ingredients (room temperature): 0%
- residue (Solubility Test) (stirred 30 minutes at room temperature, membrane filter, filter dried): 0%
